The source made the active and inactive calls.

The source of these data is ChEMBL document CHEMBL1201862, “PubChem BioAssay data set” (2004).

Assay [1] has as its target T1, Protein disulfide-isomerase (Homo sapiens, UniProt P07237). The experiment in a line: inhibition of PDI-mediated insulin reduction – biochemical, turbidity, absorbance, cherry-picked samples, set 2, dose response (AID 624274). It is filed as functional.
The target of assay [2] is T1, Protein disulfide-isomerase. The assay can be described thus: inhibition of PDI-driven insulin aggregation – biochemical, turbidity, absorbance, cherry-picked samples, dose response (AID 602350). It is filed as functional.
Assay [3] addresses SWI/SNF-related matrix-associated actin-dependent regulator of chromatin subfamily A member 2 (Homo sapiens, UniProt P51531). The experiment in a line: Luminescence-based cell-based high throughput dose response assay to identify activators of the function of SWI/SNF related, matrix associated, actin dependent regulator of chromatin, subfamily a, member 2 (SMARCA2, BRM). The format is functional.

A short description of assay [4]: Counterscreen for activators of the function of SWI/SNF related, matrix associated, actin dependent regulator of chromatin, subfamily a, member 2 (SMARCA2, BRM): Luminescence-based cell-based high throughput dose response assay to identify non-selective compounds using the VP16 reporter assay. It is filed as functional.
Assay [5] has as its target PglD (Campylobacter jejuni, UniProt O86157). The assay can be described thus: inhibition of C. jejuni PglD N-acetyltransferase – biochemical, DTNB absorbance, cherry-picked samples, set 2, dose response (AID 624257). The format is functional.
A short description of assay [6]: viability loss in HeLa cells – cytotoxicity control for MgcRacGAP inhibitor project, dose response (AID 624300). It is filed as functional.
The target of assay [7] is T2, Rac GTPase-activating protein 1 (Homo sapiens, UniProt Q9H0H5).
T2 sequence (Q9H0H5 whole entry): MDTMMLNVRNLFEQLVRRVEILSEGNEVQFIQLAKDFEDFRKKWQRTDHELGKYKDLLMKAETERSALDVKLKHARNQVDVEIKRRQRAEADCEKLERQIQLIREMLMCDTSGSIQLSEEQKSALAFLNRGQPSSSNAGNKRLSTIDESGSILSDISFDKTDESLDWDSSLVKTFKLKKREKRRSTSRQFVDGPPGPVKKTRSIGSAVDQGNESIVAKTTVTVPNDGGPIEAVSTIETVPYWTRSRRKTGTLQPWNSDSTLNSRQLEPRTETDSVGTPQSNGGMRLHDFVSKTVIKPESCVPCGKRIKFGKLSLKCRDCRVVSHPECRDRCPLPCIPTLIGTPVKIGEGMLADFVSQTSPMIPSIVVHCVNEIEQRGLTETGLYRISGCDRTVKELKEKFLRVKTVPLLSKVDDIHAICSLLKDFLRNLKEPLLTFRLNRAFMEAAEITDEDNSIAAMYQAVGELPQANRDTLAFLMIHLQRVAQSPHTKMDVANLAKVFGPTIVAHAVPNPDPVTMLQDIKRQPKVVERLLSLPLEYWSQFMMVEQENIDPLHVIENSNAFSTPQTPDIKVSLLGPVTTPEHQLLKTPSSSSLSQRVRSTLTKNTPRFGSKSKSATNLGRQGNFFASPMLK
The experiment in a line: blockers of MgcRacGAP-driven Rac1 GTP hydrolysis – biochemical, ADP Hunter fluorescence, primary and confirmatory, confirmation (AID 624330). It is filed as functional.

The subject of assay [8] is H9c2. The experiment in a line: cells. It is filed as functional, cell-based. The note with it: Rattus norvegicus, H9c2, Myocardium.
Assay [9] concerns the target ATP-dependent translocase ABCB1 (Homo sapiens, UniProt P08183). The experiment in a line: P-gp JC-1 efflux blockade concentration-response – Jurkat-DNR cells, flow cytometry, set 2, dose response (AID 504569).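 Note: potency of pump inhibitors that raise cellular JC-1 green fluorescence up to the nicardipine level.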 It is filed as functional. The note with it: read-out: EC50_MICROM_.
Assay [10] addresses T3, Low molecular weight phosphotyrosine protein phosphatase (Homo sapiens, UniProt P24666).
T3 sequence (P24666 whole entry): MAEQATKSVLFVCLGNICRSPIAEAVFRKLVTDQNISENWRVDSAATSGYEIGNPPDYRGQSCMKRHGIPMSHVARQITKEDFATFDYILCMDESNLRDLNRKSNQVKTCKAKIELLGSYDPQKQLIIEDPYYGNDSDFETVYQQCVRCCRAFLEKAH
It is filed as functional. To be noted: read-out: IC50_Mean.

Assay [11] concerns the target Tyrosine-protein phosphatase non-receptor type 5 (Homo sapiens, UniProt P54829). The experiment in a line: PTPN5 enzyme inhibition – biochemical, fluorescence intensity, uHTS hits, confirmation (AID 602372). The format is functional. To be noted: read-out: IC50_Mean.
Assay [12] has as its target T3, Low molecular weight phosphotyrosine protein phosphatase. The format is functional. To be noted: read-out: IC50_Mean. The source holds these as a separate data set.
The target of assay [13] is T4, Tyrosine-protein phosphatase non-receptor type 22 (Homo sapiens, UniProt Q9Y2R2).
T4 sequence (Q9Y2R2 whole entry): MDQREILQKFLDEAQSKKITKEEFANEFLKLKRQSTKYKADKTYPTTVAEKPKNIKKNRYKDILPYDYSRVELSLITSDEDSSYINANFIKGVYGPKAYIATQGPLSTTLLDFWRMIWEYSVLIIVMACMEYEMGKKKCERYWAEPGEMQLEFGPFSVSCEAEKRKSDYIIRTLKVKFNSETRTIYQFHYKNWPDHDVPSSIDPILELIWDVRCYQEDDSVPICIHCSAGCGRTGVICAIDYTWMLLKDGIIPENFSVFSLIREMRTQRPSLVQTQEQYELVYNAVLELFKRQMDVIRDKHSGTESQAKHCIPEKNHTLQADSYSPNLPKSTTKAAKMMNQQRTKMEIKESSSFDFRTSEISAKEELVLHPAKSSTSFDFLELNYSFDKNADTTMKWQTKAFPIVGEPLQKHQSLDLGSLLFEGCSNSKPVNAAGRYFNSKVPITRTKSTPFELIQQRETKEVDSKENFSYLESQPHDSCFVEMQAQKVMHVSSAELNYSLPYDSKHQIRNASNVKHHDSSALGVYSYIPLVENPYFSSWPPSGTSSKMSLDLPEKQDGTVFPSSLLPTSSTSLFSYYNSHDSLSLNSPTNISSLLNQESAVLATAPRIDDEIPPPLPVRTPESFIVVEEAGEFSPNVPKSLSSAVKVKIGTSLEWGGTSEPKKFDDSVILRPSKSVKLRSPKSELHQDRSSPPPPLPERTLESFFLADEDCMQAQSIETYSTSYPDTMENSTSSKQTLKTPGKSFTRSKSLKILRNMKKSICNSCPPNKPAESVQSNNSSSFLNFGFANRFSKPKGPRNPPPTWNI
The assay can be described thus: lymphoid phosphatase LYP inhibitors – biochemical, selectivity assay for STEP inhibitor project, dose response (AID 624241). The format is functional.

For assay [14], the target named is Tyrosine-protein phosphatase non-receptor type 11 (Homo sapiens, UniProt Q06124). The experiment in a line: PTPN11 enzyme inhibitors – biochemical, selectivity assay for STEP inhibitor project, dose response (AID 602367). It is filed as functional. The note with it: read-out: IC50_Mean.
Assay [15] has as its target Dual specificity protein phosphatase 3 (Homo sapiens, UniProt P51452). The experiment in a line: VHR phosphatase inhibition, dose response, selectivity assay for STEP inhibitor project, biochemical (AID 602374). The format is functional. To be noted: read-out: IC50_Mean.
The test system of assay [16] is Cryptococcus neoformans. The assay can be described thus: Cryptococcus growth inhibition by alamar blue – cell lysis, cherry-picks, replicate tests, mechanism study for C. neoformans antifungal project, dose response (AID 686999). It is filed as functional, organism-based.
Assay [17] deals with HeLa. The assay can be described thus: viability loss in HeLa cells – cell-based, ATP luminescence, cherry-pick samples, cytotoxicity control, dose response (AID 687004). The format is functional. The note with it: Homo sapiens.
A short description of assay [18]: LMP1-induced NF-kB luciferase signal inhibition – cell-based, EBV LMP1, dry powder, set 2, dose response (AID 624361). The format is functional.
Assay [19] is described as follows: TNFa-induced NF-kB reporter signal decrease – HEK293 LMP1 reporter cells, dry powder, set 2, selectivity assay for EBV LMP1 NF-kB inhibitor project, dose response (AID 624369). The format is functional.

T1 sequence (P07237 whole entry): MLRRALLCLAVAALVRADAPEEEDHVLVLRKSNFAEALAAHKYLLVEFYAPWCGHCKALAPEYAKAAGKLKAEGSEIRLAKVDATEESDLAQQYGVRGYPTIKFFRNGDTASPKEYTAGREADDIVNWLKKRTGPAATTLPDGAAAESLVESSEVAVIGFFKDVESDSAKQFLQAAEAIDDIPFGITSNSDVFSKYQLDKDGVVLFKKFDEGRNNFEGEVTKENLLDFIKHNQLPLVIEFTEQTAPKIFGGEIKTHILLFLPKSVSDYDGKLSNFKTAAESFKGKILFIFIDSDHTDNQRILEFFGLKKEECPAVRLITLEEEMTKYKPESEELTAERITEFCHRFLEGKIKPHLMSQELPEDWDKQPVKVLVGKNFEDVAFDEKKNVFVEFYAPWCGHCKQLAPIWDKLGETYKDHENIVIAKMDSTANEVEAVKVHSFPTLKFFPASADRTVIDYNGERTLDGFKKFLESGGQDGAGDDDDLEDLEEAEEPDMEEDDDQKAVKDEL
Chain of Tyrosine-protein phosphatase non-receptor type 5 (P54829 whole entry): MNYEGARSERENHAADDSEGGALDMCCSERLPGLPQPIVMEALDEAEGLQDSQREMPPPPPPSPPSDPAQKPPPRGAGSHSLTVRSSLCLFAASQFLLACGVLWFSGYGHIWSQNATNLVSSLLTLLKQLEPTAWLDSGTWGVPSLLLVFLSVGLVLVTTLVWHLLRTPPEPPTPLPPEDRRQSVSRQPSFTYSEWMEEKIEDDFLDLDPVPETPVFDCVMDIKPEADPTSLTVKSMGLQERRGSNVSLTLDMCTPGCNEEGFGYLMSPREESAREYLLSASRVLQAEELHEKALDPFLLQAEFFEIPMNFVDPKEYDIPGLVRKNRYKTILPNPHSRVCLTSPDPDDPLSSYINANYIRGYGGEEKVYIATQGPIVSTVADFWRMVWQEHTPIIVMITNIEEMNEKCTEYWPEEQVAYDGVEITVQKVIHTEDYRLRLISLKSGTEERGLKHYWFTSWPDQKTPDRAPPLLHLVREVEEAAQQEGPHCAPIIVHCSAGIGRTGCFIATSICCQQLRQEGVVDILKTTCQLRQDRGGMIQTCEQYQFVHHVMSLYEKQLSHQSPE
Chain of Tyrosine-protein phosphatase non-receptor type 11 (Q06124 whole entry): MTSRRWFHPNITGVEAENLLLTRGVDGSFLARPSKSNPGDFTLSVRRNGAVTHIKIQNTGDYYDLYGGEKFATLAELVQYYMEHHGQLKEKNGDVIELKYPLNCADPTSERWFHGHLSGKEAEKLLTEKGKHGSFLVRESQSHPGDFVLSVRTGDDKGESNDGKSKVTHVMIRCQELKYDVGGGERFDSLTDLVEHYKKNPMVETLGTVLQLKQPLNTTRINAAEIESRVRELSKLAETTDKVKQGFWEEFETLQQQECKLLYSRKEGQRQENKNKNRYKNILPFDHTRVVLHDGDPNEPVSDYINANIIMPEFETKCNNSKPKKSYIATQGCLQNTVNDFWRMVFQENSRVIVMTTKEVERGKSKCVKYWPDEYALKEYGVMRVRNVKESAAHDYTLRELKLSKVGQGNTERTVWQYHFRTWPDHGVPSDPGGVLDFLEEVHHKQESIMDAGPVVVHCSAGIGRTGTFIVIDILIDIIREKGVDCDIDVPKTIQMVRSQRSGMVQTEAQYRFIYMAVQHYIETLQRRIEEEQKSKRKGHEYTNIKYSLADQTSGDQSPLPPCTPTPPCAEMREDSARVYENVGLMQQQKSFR
Chain of ATP-dependent translocase ABCB1 (P08183 whole entry): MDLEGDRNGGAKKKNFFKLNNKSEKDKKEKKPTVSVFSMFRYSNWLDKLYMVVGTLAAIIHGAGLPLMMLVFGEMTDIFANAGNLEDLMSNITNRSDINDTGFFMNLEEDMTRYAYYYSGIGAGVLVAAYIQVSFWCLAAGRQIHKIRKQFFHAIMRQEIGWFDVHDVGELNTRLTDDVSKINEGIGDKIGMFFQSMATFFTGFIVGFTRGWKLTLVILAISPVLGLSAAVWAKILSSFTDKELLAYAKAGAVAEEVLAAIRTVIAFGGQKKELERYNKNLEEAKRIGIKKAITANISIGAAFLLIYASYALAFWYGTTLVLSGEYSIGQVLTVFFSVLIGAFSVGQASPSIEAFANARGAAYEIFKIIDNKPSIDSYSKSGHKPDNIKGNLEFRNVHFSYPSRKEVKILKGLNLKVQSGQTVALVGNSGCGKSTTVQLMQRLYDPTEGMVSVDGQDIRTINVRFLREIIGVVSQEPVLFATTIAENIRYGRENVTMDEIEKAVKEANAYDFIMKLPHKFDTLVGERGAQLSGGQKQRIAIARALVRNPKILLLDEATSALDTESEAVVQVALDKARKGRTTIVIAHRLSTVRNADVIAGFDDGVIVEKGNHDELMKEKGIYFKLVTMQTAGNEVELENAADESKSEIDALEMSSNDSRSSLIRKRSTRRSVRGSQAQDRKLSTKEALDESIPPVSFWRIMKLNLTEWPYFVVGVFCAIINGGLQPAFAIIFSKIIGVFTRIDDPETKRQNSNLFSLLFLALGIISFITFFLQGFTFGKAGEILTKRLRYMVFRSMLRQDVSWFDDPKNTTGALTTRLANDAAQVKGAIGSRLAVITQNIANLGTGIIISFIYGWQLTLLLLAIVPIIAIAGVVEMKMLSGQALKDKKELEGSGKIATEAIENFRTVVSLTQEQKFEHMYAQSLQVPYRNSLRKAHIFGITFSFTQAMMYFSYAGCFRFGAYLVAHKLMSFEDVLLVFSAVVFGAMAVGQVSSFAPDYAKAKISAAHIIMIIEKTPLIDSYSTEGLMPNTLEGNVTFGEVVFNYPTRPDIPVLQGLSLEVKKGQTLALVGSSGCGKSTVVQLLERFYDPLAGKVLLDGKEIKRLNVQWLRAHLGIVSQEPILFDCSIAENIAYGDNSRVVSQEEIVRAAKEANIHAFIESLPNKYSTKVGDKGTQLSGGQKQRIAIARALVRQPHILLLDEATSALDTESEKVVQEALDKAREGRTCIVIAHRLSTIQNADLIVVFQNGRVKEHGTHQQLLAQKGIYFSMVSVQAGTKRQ
Chain of PglD (O86157 whole entry): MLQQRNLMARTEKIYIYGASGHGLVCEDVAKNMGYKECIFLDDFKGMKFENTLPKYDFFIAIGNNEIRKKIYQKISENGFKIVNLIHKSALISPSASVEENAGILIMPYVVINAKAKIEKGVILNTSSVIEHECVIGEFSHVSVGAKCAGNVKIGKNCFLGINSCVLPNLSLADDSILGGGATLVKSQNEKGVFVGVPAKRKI
Chain of Dual specificity protein phosphatase 3 (P51452 whole entry): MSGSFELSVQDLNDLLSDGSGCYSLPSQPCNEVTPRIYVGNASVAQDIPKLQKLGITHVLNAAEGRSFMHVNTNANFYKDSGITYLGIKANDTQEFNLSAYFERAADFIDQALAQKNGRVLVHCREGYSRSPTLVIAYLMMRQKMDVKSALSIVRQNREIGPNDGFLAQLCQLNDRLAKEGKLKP
Chain of SWI/SNF-related matrix-associated actin-dependent regulator of chromatin subfamily A member 2 (P51531 whole entry): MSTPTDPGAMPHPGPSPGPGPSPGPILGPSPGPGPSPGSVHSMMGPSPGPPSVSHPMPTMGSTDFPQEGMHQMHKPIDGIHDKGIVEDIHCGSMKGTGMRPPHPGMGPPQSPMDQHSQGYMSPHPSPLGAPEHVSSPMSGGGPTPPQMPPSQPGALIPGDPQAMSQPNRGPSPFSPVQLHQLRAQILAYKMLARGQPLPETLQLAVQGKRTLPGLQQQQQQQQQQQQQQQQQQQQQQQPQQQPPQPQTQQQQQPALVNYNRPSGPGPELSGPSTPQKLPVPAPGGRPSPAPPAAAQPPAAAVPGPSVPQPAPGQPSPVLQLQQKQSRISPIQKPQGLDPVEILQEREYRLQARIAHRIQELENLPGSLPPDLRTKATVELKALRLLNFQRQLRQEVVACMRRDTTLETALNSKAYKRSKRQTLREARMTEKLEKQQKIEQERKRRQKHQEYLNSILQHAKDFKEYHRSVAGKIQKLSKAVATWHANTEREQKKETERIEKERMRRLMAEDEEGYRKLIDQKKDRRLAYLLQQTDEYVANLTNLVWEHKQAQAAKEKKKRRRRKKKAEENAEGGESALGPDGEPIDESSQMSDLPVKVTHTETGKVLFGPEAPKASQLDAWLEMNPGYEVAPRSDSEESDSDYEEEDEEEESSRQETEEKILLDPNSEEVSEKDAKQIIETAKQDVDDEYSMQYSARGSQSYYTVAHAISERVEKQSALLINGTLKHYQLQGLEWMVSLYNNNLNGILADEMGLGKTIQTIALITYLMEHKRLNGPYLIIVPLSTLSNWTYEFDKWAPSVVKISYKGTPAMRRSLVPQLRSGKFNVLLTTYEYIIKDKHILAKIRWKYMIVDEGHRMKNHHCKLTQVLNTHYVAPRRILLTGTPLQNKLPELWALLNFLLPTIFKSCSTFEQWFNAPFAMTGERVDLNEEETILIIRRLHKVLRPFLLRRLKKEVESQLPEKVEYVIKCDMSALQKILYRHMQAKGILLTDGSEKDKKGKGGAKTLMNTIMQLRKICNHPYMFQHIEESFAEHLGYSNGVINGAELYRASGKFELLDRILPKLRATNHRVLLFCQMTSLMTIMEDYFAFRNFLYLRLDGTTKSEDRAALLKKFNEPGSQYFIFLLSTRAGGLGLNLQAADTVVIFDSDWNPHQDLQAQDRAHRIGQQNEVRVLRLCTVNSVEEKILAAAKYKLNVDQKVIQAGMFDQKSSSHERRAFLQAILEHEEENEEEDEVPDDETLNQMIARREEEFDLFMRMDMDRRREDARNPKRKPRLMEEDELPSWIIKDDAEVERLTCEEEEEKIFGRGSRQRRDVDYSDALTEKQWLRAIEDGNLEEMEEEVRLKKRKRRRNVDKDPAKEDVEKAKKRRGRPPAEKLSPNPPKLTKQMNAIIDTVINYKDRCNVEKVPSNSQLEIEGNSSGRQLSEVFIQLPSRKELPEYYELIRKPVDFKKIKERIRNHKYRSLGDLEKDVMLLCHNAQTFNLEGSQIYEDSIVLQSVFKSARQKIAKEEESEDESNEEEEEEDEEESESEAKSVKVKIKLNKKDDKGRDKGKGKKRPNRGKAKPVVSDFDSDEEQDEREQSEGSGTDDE

Consider `CC1Cc2ccccc2N1C(=O)CSc1nnc2sc3ccccc3n12` (centres undefined), for which the AC50 is 0.009 µM (active) in [1] and < 0.009 µM (active) in assay [2].

Consider `COc1ccc(-c2nnc(-c3ccc(N(C)C)cc3)o2)cc1`, for which the EC50 in [3] and in [4] was > 91.2 µM (inactive) throughout.

Turning to `Cc1c(C(=O)O)sc2nc(/C=C/c3cccc(O)c3)nc(O)c12`, in assay [5], the concentration at half-maximal activity (AC50) was 4.58 µM (active).

Regarding `Nc1nc(S)c2[nH]c(S)nc2n1`, the cytotoxic concentration (CC50) in assay [6] is 100 µM (active). For the same compound, in assay [7], the IC50 is 112 µM (active).

In the case of `COc1ccc(-c2cc3nc(-c4ccccc4)cc(N4CCN(C(=O)c5ccoc5)CC4)n3n2)cc1`, the IC50 in assay [8] is > 79 µM (inactive). Further, the EC50 in assay [9] was 0.94 µM (active).

Regarding `C/C(=N\NC(=O)c1ccccc1O)c1ccc(NC(=O)Cc2ccccc2)cc1`, the IC50 in assay [10] is 15.9 µM (active); in assay [11] it was 12.8 µM (active); in assay [12], 14.2 µM (active); in [13], > 100 µM (inactive); in [14], 2.01 µM (active); in [15], 2.38 µM (active).

As for `COC(=O)C1=C(C)N(Cc2ccc(F)cc2)C(=S)NC1c1ccc(F)cc1` (centres undefined), the AC50 in [16] is 56.1 µM (active); in assay [17], > 52 µM (inactive).

As for `O=C(C[C@H]1CC[C@@H]2[C@H](COC[C@H](O)CN2Cc2ccc(Oc3ccccc3)cc2)O1)N1CCc2ccccc2C1`, the AbsAC35 in assay [18] was found to be 66.11 µM; in assay [19], 121.3 µM.
